{"source": "patent US11613542B2", "about": "“Sulfonylureas and sulfonylthioureas as NLRP3 inhibitors” (Inflazome Limited, priority 2017, dated 2023)", "target": "NLRP3 (Homo sapiens, UniProt Q96P20)", "sequence (Q96P20 whole entry)": "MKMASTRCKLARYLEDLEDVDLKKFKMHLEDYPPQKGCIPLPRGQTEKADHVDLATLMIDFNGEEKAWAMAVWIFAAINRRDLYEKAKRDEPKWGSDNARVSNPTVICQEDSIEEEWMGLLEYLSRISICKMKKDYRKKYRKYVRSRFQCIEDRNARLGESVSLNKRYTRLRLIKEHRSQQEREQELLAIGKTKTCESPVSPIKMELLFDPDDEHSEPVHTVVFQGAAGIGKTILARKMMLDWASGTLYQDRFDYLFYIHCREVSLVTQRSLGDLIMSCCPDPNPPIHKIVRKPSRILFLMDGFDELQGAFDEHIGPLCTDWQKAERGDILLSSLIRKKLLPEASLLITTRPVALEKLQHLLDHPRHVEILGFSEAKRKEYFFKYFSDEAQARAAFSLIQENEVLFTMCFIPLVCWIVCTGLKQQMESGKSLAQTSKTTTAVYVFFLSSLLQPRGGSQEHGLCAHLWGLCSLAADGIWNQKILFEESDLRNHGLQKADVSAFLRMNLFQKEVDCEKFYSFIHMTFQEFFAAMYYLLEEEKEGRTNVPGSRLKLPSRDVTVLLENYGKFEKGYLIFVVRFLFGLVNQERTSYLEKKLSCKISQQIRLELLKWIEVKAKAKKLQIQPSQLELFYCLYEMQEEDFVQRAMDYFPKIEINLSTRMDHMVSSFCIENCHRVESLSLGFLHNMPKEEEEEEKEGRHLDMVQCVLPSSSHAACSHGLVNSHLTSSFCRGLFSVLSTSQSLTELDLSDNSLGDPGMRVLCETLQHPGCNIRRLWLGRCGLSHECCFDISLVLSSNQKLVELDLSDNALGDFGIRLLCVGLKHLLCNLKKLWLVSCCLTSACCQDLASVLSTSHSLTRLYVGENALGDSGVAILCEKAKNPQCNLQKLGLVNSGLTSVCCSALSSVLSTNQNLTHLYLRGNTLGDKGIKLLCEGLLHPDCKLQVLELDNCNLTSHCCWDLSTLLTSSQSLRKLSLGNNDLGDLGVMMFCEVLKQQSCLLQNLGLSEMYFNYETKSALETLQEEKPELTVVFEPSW", "experiment": "THP-1 cells pyroptosis assay", "format": "cell-based", "design": "Seed THP-1 cells (25,000 cells/well) containing 1.0 μg/ml LPS; host or cells: THP-1 cells, LPS-primed, nigericin-stimulated", "details": "THP-1 cells, 1.0 μg/ml LPS, compound 3 hrs, nigericin 5 μM 1 hr, resazurin readout; read-out: THP IC50", "text": "NLRP and Pyroptosis It is well established that the activation of NLRP3 leads to cell pyroptosis and this feature plays an important part in the manifestation of clinical disease (Yan-gang Liu et al., Cell Death &Disease, 2017, 8(2), e2579; Alexander Wree et al., Hepatology, 2014, 59(3), 898-910; Alex Baldwin et al., Journal of Medicinal Chemistry, 2016, 59(5), 1691-171; Ema Ozaki et al., Journal of Inflammation Research, 2015, 8, 15-27; Zhen Xie & Gang Zhao, Neuroimmunology Neuroinflammation, 2014, 1(2), 60-65; Mattia Cocco et al., Journal of Medicinal Chemistry, 2014, 57(24), 10366-10382; T. Satoh et al., Cell Death &Disease, 2013, 4, e644). Therefore, it is anticipated that inhibitors of NLRP3 will block pyroptosis, as well as the release of pro-inflammatory cytokines (e.g. […]) from the cell. THP-1 Cells: Culture and Preparation THP-1 cells (ATCC #TIB-202) were grown in RPMI containing L-glutamine (Gibco #11835) supplemented with imM sodium pyruvate (Sigma #S8636) and penicillin (100 units/ml)/streptomycin (0.1 mg/ml) (Sigma #P4333) in 10% Fetal Bovine Serum (FBS) (Sigma #Fo804). The cells were routinely passaged and grown to confluency (˜10^6 cells/ml). On the day of the experiment, THP-1 cells were harvested and resuspended into RPMI medium (without FBS). The cells were then counted and viability (>90%) checked by Trypan blue (Sigma #T8154). Appropriate dilutions were made to give a concentration of 625,000 cells/ml. To this diluted cell solution was added LPS (Sigma #L4524) to give a […] Final Assay Concentration (FAC). 40 μl of the final preparation was aliquoted into each well of a 96-well plate. The plate thus prepared was used for compound screening. THP-1 Cells Pyroptosis Assay The following method step-by-step assay was followed for compound screening. • 1. Seed THP-1 cells (25,000 cells/well) containing 1.0 μg/ml LPS in 40 μl of RPMI medium (without FBS) in 96-well, black walled, clear bottom cell culture plates coated with poly-D-lysine (VWR #734-0317) • 2. Add […] compound (8 points half-log dilution, with 10 μM top dose) or vehicle (DMSO 0.1% FAC) to the appropriate wells • 3. […] Add 5 μl nigericin (Sigma #N7143) (FAC 5 μM) to all wells • 5. […] At the end of the incubation period, spin plates at 300 xg for 3 mins and remove supernatant • 7. Then add 50 μl of resazurin (Sigma #R7017) (FAC 100μ M resazurin in RPMI medium without FBS) and incubate plates for a further 1-2 hrs at 37° C. and 5% CO2 • 8. Plates were read in an Envision reader at Ex 560 nm and Em 590 nm • 9. IC50 data is fitted to a non-linear regression equation (log inhibitor vs response-variable slope 4-parameters) [table]", "note": "Counter-ions that a name gives are not always drawn."}
{"smiles": "CC(c1cc(S(=O)(=O)NC(=O)Nc2c3c(cc4c2CCC4)CCC3)nn1C)N1CCC1", "note": "(single isomer, unassigned) [Example 46, 5-(1-(Azetidin-1-yl)ethyl)-N-((1,2,3,5,6,7-hexahydro-s-indacen-4-yl)carbamoyl)-1-methyl-1H-pyrazole-3-sulfonamide, sodium salt]", "values": [{"measurement": "IC50", "result": "< 0.16", "unit": "µM"}]}
{"smiles": "CC(c1cc(S(=O)(=O)NC(=O)Nc2c3c(cc4c2CCC4)CCC3)nn1C)N1CCC1", "note": "(single isomer, unassigned) [Example 47, 5-(1-(Azetidin-1-yl)ethyl)-N-((1,2,3,5,6,7-hexahydro-s-indacen-4-yl)carbamoyl)-1-methyl-1H-pyrazole-3-sulfonamide, sodium salt]", "values": [{"measurement": "IC50", "result": "< 0.16", "unit": "µM"}]}
{"smiles": "CC(=O)N1CC(n2ccc(S(=O)(=O)NC(=O)Nc3c4c(cc5c3CCC5)CCC4)n2)C1", "note": "[Example 4, 1-(1-Acetylazetidin-3-yl)-N-((1,2,3,5,6,7-hexahydro-s-indacen-4-yl)carbamoyl)-1H-pyrazole-3-sulfonamide]", "values": [{"measurement": "IC50", "result": "< 2.56", "unit": "µM"}]}
{"smiles": "CN1CCn2nc(S(=O)(=O)NC(=O)Nc3c4c(cc5c3CCC5)CCC4)cc2C1=O", "note": "[Example 5, N-((1,2,3,5,6,7-Hexahydro-s-indacen-4-yl)carbamoyl)-5-methyl-4-oxo-4,5,6,7-tetrahydropyrazolo[1,5-a]pyrazine-2-sulfonamide, sodium salt]", "values": [{"measurement": "IC50", "result": "< 10", "unit": "µM"}]}
{"smiles": "CC(C)c1cc(F)cc(C(C)C)c1NC(=O)NS(=O)(=O)c1ccn(CCN(C)C)n1", "note": "[Example 16, 1-(2-(Dimethylamino)ethyl)-N-((4-fluoro-2,6-diisopropyl-phenyl)carbamoyl)-1H-pyrazole-3-sulfonamide]", "values": [{"measurement": "IC50", "result": "< 10", "unit": "µM"}]}
{"smiles": "O=C(Nc1c2c(cc3c1CCC3)CCC2)NS(=O)(=O)c1ccn(Cc2ncccn2)n1", "note": "[Example 22, N-((1,2,3,5,6,7-Hexahydro-s-indacen-4-yl)carbamoyl)-1-(pyrimidin-2-ylmethyl)-1H-pyrazole-3-sulfonamide]", "values": [{"measurement": "IC50", "result": "< 2.56", "unit": "µM"}]}
{"smiles": "CN1CCC(n2ccc(S(=O)(=O)NC(=O)Nc3c4c(cc5c3CCC5)CCC4)n2)CC1", "note": "[Example 31, N-((1,2,3,5,6,7-Hexahydro-s-indacen-4-yl)carbamoyl)-1-(1-methylpiperidin-4-yl)-1H-pyrazole-3-sulfonamide]", "values": [{"measurement": "IC50", "result": "< 2.56", "unit": "µM"}]}
{"smiles": "CN(C)CCCn1ccc(S(=O)(=O)NC(=O)Nc2c3c(cc4c2CCC4)CCC3)n1", "note": "[Example 32, 1-(3-(Dimethylamino)propyl)-N-((1,2,3,5,6,7-hexahydro-s-indacen-4-yl)carbamoyl)-1H-pyrazole-3-sulfonamide]", "values": [{"measurement": "IC50", "result": "< 2.56", "unit": "µM"}]}
{"smiles": "O=C(Nc1c2c(cc3c1CCC3)CCC2)NS(=O)(=O)c1ccn(-c2ccccn2)n1", "note": "[Example 119, N-((1,2,3,5,6,7-Hexahydro-s-indacen-4-yl)carbamoyl)-1-(pyridin-2-yl)-1H-pyrazole-3-sulfonamide, sodium salt]", "values": [{"measurement": "IC50", "result": "< 2.56", "unit": "µM"}]}
{"smiles": "O=C(Nc1c2c(cc3c1CCC3)CCC2)NS(=O)(=O)c1ccn(-c2nccs2)n1", "note": "[Example 120, N-((1,2,3,5,6,7-Hexahydro-s-indacen-4-yl)carbamoyl)-1-(thiazol-2-yl)-1H-pyrazole-3-sulfonamide, sodium salt]", "values": [{"measurement": "IC50", "result": "< 2.56", "unit": "µM"}]}
{"smiles": "O=C(Nc1c2c(cc3c1CCC3)CCC2)NS(=O)(=O)c1ccn(-c2cccnc2)n1", "note": "[Example 121, N-((1,2,3,5,6,7-Hexahydro-s-indacen-4-yl)carbamoyl)-1-(pyridin-3-yl)-1H-pyrazole-3-sulfonamide]", "values": [{"measurement": "IC50", "result": "< 2.56", "unit": "µM"}]}
{"smiles": "CC(C)c1cc(F)cc(C(C)C)c1NC(=O)NS(=O)(=O)c1cc(CN(C)CCO)n(C)n1", "note": "[Example 123, N-((4-Fluoro-2,6-diisopropylphenyl)carbamoyl)-5-(((2-hydroxyethyl)(methyl)amino)methyl)-1-methyl-1H-pyrazole-3-sulfonamide]", "values": [{"measurement": "IC50", "result": "< 0.64", "unit": "µM"}]}
{"smiles": "COCCN(C)Cc1cc(S(=O)(=O)NC(=O)Nc2c(C(C)C)cc(F)cc2C(C)C)nn1C", "note": "[Example 125, N-((4-Fluoro-2,6-diisopropylphenyl)carbamoyl)-5-(((2-methoxyethyl)(methyl)amino)methyl)-1-methyl-1H-pyrazole-3-sulfonamide, sodium salt]", "values": [{"measurement": "IC50", "result": "< 2.56", "unit": "µM"}]}
{"smiles": "CC(C)c1cc(Cl)cc(C(C)C)c1NC(=O)NS(=O)(=O)c1cc(CN2CCOCC2)n(C)n1", "note": "[Example 127, N-((4-Chloro-2,6-diisopropylphenyl)carbamoyl)-1-methyl-5-(morpholinomethyl)-1H-pyrazole-3-sulfonamide, sodium salt]", "values": [{"measurement": "IC50", "result": "< 2.56", "unit": "µM"}]}
{"smiles": "Cn1nc(S(=O)(=O)NC(=O)Nc2c3c(cc4c2CCC4)CCC3)cc1CN1CCOCC1", "note": "[Example 128, N-((1,2,3,5,6,7-Hexahydro-s-indacen-4-yl)carbamoyl)-1-methyl-5-(morpholinomethyl)-1H-pyrazole-3-sulfonamide]", "values": [{"measurement": "IC50", "result": "< 2.56", "unit": "µM"}]}
{"smiles": "CC(C)c1cc(F)cc(C(C)C)c1NC(=O)NS(=O)(=O)c1cc(C(=O)N2CCC2)n(C(C)C)n1", "note": "[Example 130, 5-(azetidine-1-carbonyl)-N-((4-fluoro-2,6-diisopropylphenyl)carbamoyl)-1-isopropyl-1H-pyrazole-3-sulfonamide]", "values": [{"measurement": "IC50", "result": "< 0.64", "unit": "µM"}]}
{"smiles": "CC(C)c1ccc(-c2cncnc2)cc1NC(=O)NS(=O)(=O)c1cc(C(=O)N(C)C)n(C)n1", "note": "[Example 134, 3-(N-((2-Isopropyl-5-(pyrimidin-5-yl)phenyl)carbamoyl)sulfamoyl)-N,N,1-trimethyl-1H-pyrazole-5-carboxamide, sodium salt]", "values": [{"measurement": "IC50", "result": "< 2.56", "unit": "µM"}]}
{"smiles": "CC(C)c1ccc(-c2cnn(C)c2)cc1NC(=O)NS(=O)(=O)c1cc(C(=O)N(C)C)n(C)n1", "note": "[Example 136, 3-(N-((2-Isopropyl-5-(1-methyl-1H-pyrazol-4-yl)phenyl)carbamoyl)sulfamoyl)-N,N,1-trimethyl-1H-pyrazole-5-carboxamide, sodium salt]", "values": [{"measurement": "IC50", "result": "< 2.56", "unit": "µM"}]}
{"smiles": "CC(C)NC(=O)c1cc(S(=O)(=O)NC(=O)Nc2c(C(C)C)cccc2C(C)C)nn1C", "note": "[Example 138, 3-(N-((2,6-Diisopropylphenyl)carbamoyl)sulfamoyl)-N-isopropyl-1-methyl-1H-pyrazole-5-carboxamide]", "values": [{"measurement": "IC50", "result": "< 10", "unit": "µM"}]}
{"smiles": "CC(C)c1cccc(C(C)C)c1NC(=O)NS(=O)(=O)c1cc(C(=O)N(C)CC#N)n(C)n1", "note": "[Example 140, N-(Cyanomethyl)-3-(N-((2,6-diisopropylphenyl)carbamoyl)sulfamoyl)-N,1-dimethyl-1H-pyrazole-5-carboxamide]", "values": [{"measurement": "IC50", "result": "< 10", "unit": "µM"}]}
{"smiles": "CC(C)NC(=O)c1cc(S(=O)(=O)NC(=O)Nc2c3c(cc4c2CCC4)CCC3)nn1C", "note": "[Example 146, 3-(N-((1,2,3,5,6,7-Hexahydro-s-indacen-4-yl)carbamoyl)sulfamoyl)-N-isopropyl-1-methyl-1H-pyrazole-5-carboxamide]", "values": [{"measurement": "IC50", "result": "< 10", "unit": "µM"}]}
{"smiles": "CCN(CC)C(=O)c1cc(S(=O)(=O)NC(=O)Nc2c(C(C)C)cc(F)cc2C(C)C)nn1C", "note": "[Example 148, N,N-Diethyl-3-(N-((4-fluoro-2,6-diisopropylphenyl)carbamoyl)sulfamoyl)-1-methyl-1H-pyrazole-5-carboxamide, sodium salt]", "values": [{"measurement": "IC50", "result": "< 0.64", "unit": "µM"}]}
{"smiles": "CCN(CC)C(=O)c1cc(S(=O)(=O)NC(=O)Nc2c(C(C)C)cccc2C(C)C)nn1C", "note": "[Example 157, 3-(N-((2,6-Diisopropylphenyl)carbamoyl)sulfamoyl)-N,N-diethyl-1-methyl-1H-pyrazole-5-carboxamide]", "values": [{"measurement": "IC50", "result": "< 2.56", "unit": "µM"}]}
{"smiles": "Cn1nc(S(=O)(=O)NC(=O)Nc2c3c(cc4c2CCC4)CCC3)cc1C(=O)N1CCCC1", "note": "[Example 159, N-((1,2,3,5,6,7-Hexahydro-s-indacen-4-yl)carbamoyl)-1-methyl-5-(pyrrolidine-1-carbonyl)-1H-pyrazole-3-sulfonamide]", "values": [{"measurement": "IC50", "result": "< 2.56", "unit": "µM"}]}
{"smiles": "Cn1nc(S(=O)(=O)NC(=O)Nc2c3c(cc4c2CCC4)CCC3)cc1C(=O)N1CC(F)C1", "note": "[Example 161, 5-(3-Fluoroazetidine-1-carbonyl)-N-((1,2,3,5,6,7-hexahydro-s-indacen-4-yl)carbamoyl)-1-methyl-1H-pyrazole-3-sulfonamide, partial ammonium salt]", "values": [{"measurement": "IC50", "result": "< 2.56", "unit": "µM"}]}
